We go through 15 molecules from patent US11613542B2, “Sulfonylureas and sulfonylthioureas as NLRP3 inhibitors” (Inflazome Limited, priority 2017, dated 2023).

Broadly, the IC50 is the midpoint of a concentration-inhibition curve. In general, half-life refers to the time in which the quantity being followed falls by half. A lower half-life goes with fast loss. What is called AUC is the area under the concentration-time curve, a measure of exposure. As usually defined, the CL/F is the apparent clearance, not corrected for the fraction that reaches the circulation. By Cmax is commonly meant the peak of the concentration-time curve. The term Tmax denotes the time at which the peak concentration occurs.

Counter-ions that a name gives are not always drawn. Like-named read-outs stand apart in the source and are kept apart here.

The target in series [1] is T1, NLRP3 (Homo sapiens, UniProt Q96P20). Briefly: THP-1 cells pyroptosis assay. The class given is cell-based. On the set-up: Seed THP-1 cells (25,000 cells/well) containing 1.0 μg/ml LPS; host or cells: THP-1 cells, LPS-primed, nigericin-stimulated. Particulars: THP-1 cells, 1.0 μg/ml LPS, compound 3 hrs, nigericin 5 μM 1 hr, resazurin readout; read-out: THP IC50. The procedure, abridged:
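THP-1 cells (25,000/well) in serum-free RPMI with 1.0 μg/ml LPS, treated with compound (8-point half-log dilution, 10 μM top, 0.1% DMSO), then nigericin 5 μM final. Viability read by resazurin (100 μM final, 1-2 h, 37° C) fluorescence Ex 560/Em 590 nm; IC50 from 4-parameter variable-slope fit.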
On the technique in general: The colour change of resazurin is a common sign of viable cells or microbes.

The target of series [2] is T1, NLRP3. Briefly: Human whole blood IL1β release assay. The series is classed as cell-based. On the set-up: Human whole blood in Li-heparin tubes was obtained from healthy donors; from tissue; host or cells: human whole blood from healthy donors, LPS-primed, nigericin-stimulated. Particulars: human whole blood, 1 μg/ml LPS, compound 3 hrs, nigericin 10 μM 1 hr, IL-1β AlphaLisa; read-out: HWB IC50. The procedure, abridged: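 Healthy-donor human whole blood (Li-heparin) primed with 1 μg/ml LPS, with compound (8-point half-log, 10 μM top) or 0.1% DMSO for 3 h at 37 °C, then 10 μM nigericin (final) for 1 h. Supernatant IL-1β read by AlphaLISA; IC50 from 4-parameter variable-slope fit.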
Background: In Alpha technology, singlet oxygen from a donor bead excites a nearby acceptor bead.

Series [3] is described as follows: Pharmacokinetic parameters in male Sprague Dawley rats (intravenous and oral administration). The class given is in vivo. Particulars: dose per compound (mg/kg); for bioavailability: rat; for Vd: read-out: Vdss. As for the experimental part:
Pharmacokinetic parameters were determined in male Sprague Dawley rats (Charles River, UK, 250-350 g; or Vital River Laboratory Animal Technology Co Ltd, Beijing, China, 7-9 weeks old). Animals were individually housed during the study and maintained under a 12 h light/dark cycle. Animals had free access to food and water except that some orally dosed animals were food deprived overnight prior to the study.
For intravenous administration, compounds were formulated as a solution in water or DMSO:PBS [10:90] in 2 mL/kg dosing volume and administered via tail vein. For oral administration, compounds were formulated as a solution in water or DMSO:water [10:90] in 5 mL/kg dosing volume and administered orally.
Serial blood samples (about 120-300 μL) were taken from each animal at each of 8 time-points post dose (0.083, 0.25, 0.5, 1, 2, 4, 8 and 24 h) or at each of 12 time-points post dose (0.03, 0.1, 0.17, 0.25, 0.5, 1, 2, 4, 6, 8,12 and 24 h) or pre-dose and at each of 9 time-points post dose (0.25, 0.5, 1, 2, 4, 6, 8, 12 and 24 h). Samples were held on ice for no longer than 30 minutes before centrifugation (10,000 rpm (8,385 g) for 3 minutes; or 5,696 rpm (3,000 g) for 15 minutes) for plasma generation. Plasma was frozen on dry ice prior to bioanalysis. PK parameters were generated from LC-MS/MS data using Dotmatics or Phoenix WinNonlin 6.3 software.

Where [4] appears, read: male, Sprague Dawley, plasma, oral administration, read-out: Bioavailability.
[5] abbreviates: male, Sprague Dawley, intravenous administration, rat plasma.
Setting [6] is: male, Sprague Dawley, intravenous administration, rat plasma, read-out: AUC.
[7] abbreviates: male, Sprague Dawley, oral administration, rat plasma.
Setting [8] is: male, Sprague Dawley, oral administration, rat plasma, read-out: AUC.
The mark [9] stands for this setting: male, Sprague Dawley, oral administration, rat plasma, read-out: Cmax.
The mark [10] stands for this setting: male, Sprague Dawley, oral administration, rat plasma, read-out: Tmax.
[11] abbreviates: intravenous administration, rat plasma.
[12] abbreviates: oral administration, rat plasma.

T1 sequence (Q96P20 whole entry): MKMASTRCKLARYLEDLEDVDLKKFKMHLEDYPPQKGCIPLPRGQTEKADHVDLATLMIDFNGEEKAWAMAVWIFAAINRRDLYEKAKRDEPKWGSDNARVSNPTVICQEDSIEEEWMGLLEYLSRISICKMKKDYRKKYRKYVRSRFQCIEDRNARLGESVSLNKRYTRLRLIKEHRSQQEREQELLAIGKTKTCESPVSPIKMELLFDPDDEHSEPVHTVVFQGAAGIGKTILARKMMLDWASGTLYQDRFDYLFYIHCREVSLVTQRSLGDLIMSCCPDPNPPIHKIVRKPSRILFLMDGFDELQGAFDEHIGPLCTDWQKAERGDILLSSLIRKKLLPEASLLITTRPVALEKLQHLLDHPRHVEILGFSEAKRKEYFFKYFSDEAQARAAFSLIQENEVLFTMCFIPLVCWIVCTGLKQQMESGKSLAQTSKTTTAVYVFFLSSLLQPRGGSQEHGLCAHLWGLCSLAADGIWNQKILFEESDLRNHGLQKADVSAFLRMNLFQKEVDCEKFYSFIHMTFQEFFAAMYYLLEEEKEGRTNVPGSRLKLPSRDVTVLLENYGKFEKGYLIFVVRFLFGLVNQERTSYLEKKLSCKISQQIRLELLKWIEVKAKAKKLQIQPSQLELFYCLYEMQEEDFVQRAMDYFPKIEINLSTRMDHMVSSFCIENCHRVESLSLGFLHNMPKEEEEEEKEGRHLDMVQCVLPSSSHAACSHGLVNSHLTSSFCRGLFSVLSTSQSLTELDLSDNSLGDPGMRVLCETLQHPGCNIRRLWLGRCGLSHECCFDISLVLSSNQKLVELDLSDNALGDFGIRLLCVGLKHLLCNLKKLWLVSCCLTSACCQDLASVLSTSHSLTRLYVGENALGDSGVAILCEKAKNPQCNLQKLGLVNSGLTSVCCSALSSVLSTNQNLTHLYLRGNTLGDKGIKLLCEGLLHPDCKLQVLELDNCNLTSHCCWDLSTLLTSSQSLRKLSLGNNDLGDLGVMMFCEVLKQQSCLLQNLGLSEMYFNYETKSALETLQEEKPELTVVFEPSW

Take `CN(C)CCn1ccc(S(=O)(=O)NC(=O)Nc2c3c(cc4c2CCC4)CCC3)n1` [Example 7, 1-(2-(Dimethylamino)ethyl)-N-((1,2,3,5,6,7-hexahydro-s-indacen-4-yl)carbamoyl)-1H-pyrazole-3-sulfonamide]: at NLRP3 [1], the IC50 was less than 640 nM. Moreover, on NLRP3 [2], the IC50 is less than 400 nM. For the same molecule, the bioavailability in series [3] (setting [4]) worked out at 52.7%. Further, in series [3] (setting [5]), the clearance was determined as 2.6 mL/min/kg, the half-life was 3.7 h and the Vd came out at 0.38 L/kg. For the same molecule, the AUC in series [3] (setting [6]) was 6420 ng·h/mL. In series [3] (setting [7]), this molecule had a CL/F of 5 mL/min/kg and a half-life of 3 h. Also, the AUC in series [3] (setting [8]) stood at 15200 ng·h/mL. Also, in series [3] (setting [9]), the Cmax came out at 3250 ng/mL. Also, the Tmax in series [3] (setting [10]) came out at 1 h.
Turning to `CN(C)CC(C)(C)n1ccc(S(=O)(=O)NC(=O)Nc2c3c(cc4c2CCC4)CCC3)n1` [Example 17, 1-(1-(Dimethylamino)-2-methylpropan-2-yl)-N-((1,2,3,5,6,7-hexahydro-s-indacen-4-yl)carbamoyl)-1H-pyrazole-3-sulfonamide], the IC50 at NLRP3 [1] is less than 160 nM. In addition, the IC50 at NLRP3 [2] is less than 1600 nM. Besides, the bioavailability in series [3] (setting [4]) stood at 18.5%. Further, in series [3] (setting [5]), the clearance stood at 1.1 mL/min/kg, the half-life is 2.5 h and the Vd stood at 0.18 L/kg. Moreover, the AUC in series [3] (setting [6]) was 15800 ng·h/mL. Further, in series [3] (setting [7]), the CL/F is 6.1 mL/min/kg and the half-life was 2.3 h. In addition, the AUC in series [3] (setting [8]) is 8760 ng·h/mL. In series [3] (setting [9]), the Cmax was 2810 ng/mL. Besides, the Tmax in series [3] (setting [10]) turned out to be 0.67 h.
In the case of `CN1CC[C@H]1Cn1ccc(S(=O)(=O)NC(=O)Nc2c3c(cc4c2CCC4)CCC3)n1` [Example 20, (S)—N-((1,2,3,5,6,7-Hexahydro-s-indacen-4-yl)carbamoyl)-1-((1-methylazetidin-2-yl)methyl)-1H-pyrazole-3-sulfonamide], the IC50 on NLRP3 [1] was less than 160 nM. For the same molecule, on NLRP3 [2], the IC50 was less than 400 nM. Besides, in series [3] (setting [5]), the clearance is 2.4 mL/min/kg, the half-life is 2.9 h and the Vd was 0.32 L/kg. The area under the curve (AUC) in series [3] (setting [6]) turned out to be 11300 ng·h/mL.
Consider `CC(C)n1nc(S(=O)(=O)NC(=O)Nc2c3c(cc4c2CCC4)CCC3)cc1C(=O)N1CCC1` [Example 131, 5-(Azetidine-1-carbonyl)-N-((1,2,3,5,6,7-hexahydro-s-indacen-4-yl)carbamoyl)-1-isopropyl-1H-pyrazole-3-sulfonamide, partial ammonium salt], for which the IC50 on NLRP3 [1] is less than 160 nM. Further, the concentration for half-maximal inhibition (IC50) at NLRP3 [2] is less than 1600 nM. In series [3] (setting [11]), the AUC was found to be 302.7 ng·h/mL, the Cl is given as 55.3 mL/min/kg, the T1/2 was 1.6 h and the Vdss is given as 1.66 L/kg.
Take `CC(C)c1cc(F)cc(C(C)C)c1NC(=O)NS(=O)(=O)c1cc(C(=O)N2CCC2)n(C)n1` [Example 145, 5-(azetidine-1-carbonyl)-N-((4-fluoro-2,6-diisopropylphenyl)carbamoyl)-1-methyl-1H-pyrazole-3-sulfonamide, sodium salt]: the IC50 on NLRP3 [1] was less than 160 nM. Further, the IC50 on NLRP3 [2] is less than 400 nM. In series [3] (setting [11]), this molecule yielded an AUC of 415.0 ng·h/mL, a Cl of 40.3 mL/min/kg, a T1/2 of 6.4 h and a Vdss of 7.96 L/kg.
As to `CC(C)c1cc(F)cc(C(C)C)c1NC(=O)NS(=O)(=O)c1cc(C(=O)N(C)C)n(C)n1` [Example 160, 3-(N-((4-Fluoro-2,6-diisopropylphenyl)carbamoyl)sulfamoyl)-N,N,1-trimethyl-1H-pyrazole-5-carboxamide, sodium salt], the IC50 at NLRP3 [1] was less than 640 nM. For the same molecule, at NLRP3 [2], the IC50 was less than 400 nM. Further, in series [3] (setting [11]), the AUC worked out at 283.3 ng·h/mL, the Cl stood at 59.2 mL/min/kg, the T1/2 was 3.3 h and the Vdss came out at 4.08 L/kg. In series [3] (setting [12]), this molecule yielded an AUC of 769.7 ng·h/mL, a Cl/F of 109.8 mL/min/kg, a Cmax of 494.7 ng/mL and a T1/2 of 9.7 h. In addition, in series [3] (setting [12]), the Tmax came out at 0.17 h. In addition, the bioavailability in series [3] (oral administration) is 54.3.
Regarding `CCN(C)C(=O)c1cc(S(=O)(=O)NC(=O)Nc2c3c(cc4c2CCC4)CCC3)nn1C` [Example 162, N-Ethyl-3-(N-((1,2,3,5,6,7-hexahydro-s-indacen-4-yl)carbamoyl)sulfamoyl)-N,1-dimethyl-1H-pyrazole-5-carboxamide], the IC50 on NLRP3 [1] was less than 160 nM. The IC50 on NLRP3 [2] was less than 800 nM. In addition, in series [3] (setting [11]), the AUC came out at 1723.1 ng·h/mL, the Cl is 25.0 mL/min/kg, the T1/2 was 0.1 h and the Vdss worked out at 0.24 L/kg.
Turning to `COc1cc(-c2ccc3c(c2NC(=O)NS(=O)(=O)c2ccn(C(C)(C)C#N)n2)CCC3)ccn1` [Example 195, 1-(2-Cyanopropan-2-yl)-N-((5-(2-methoxypyridin-4-yl)-2,3-dihydro-1H-inden-4-yl)carbamoyl)-1H-pyrazole-3-sulfonamide, sodium salt], the figures for the IC50 on NLRP3 [1] and at NLRP3 [2] were less than 40 nM and less than 400 nM, respectively.
`CN(C)CC(C)(C)n1ccc(S(=O)(=O)NC(=O)Nc2c(-c3ccnc(C#N)c3)ccc3c2CCC3)n1` [Example 196, N-((5-(2-Cyanopyridin-4-yl)-2,3-dihydro-1H-inden-4-yl)carbamoyl)-1-(1-(dimethylamino)-2-methylpropan-2-yl)-1H-pyrazole-3-sulfonamide]: the values for the IC50 on NLRP3 [1] and at NLRP3 [2] were less than 40 nM and less than 400 nM, respectively.
With `CN(C)CC(C)(C)n1ccc(S(=O)(=O)NC(=O)Nc2c(-c3cccnc3)ccc3c2CCC3)n1` [Example 197, 1-(1-(Dimethylamino)-2-methylpropan-2-yl)-N-((5-(pyridin-3-yl)-2,3-dihydro-1H-inden-4-yl)carbamoyl)-1H-pyrazole-3-sulfonamide], the IC50 at NLRP3 [1] is less than 640 nM; at NLRP3 [2], less than 400 nM.
Consider `C[C@H](CN(C)C)n1ccc(S(=O)(=O)NC(=O)Nc2c3c(cc4c2CCC4)CCC3)n1` [Example 198, (R)-1-(1-(Dimethylamino)propan-2-yl)-N-((1,2,3,5,6,7-hexahydro-s-indacen-4-yl)carbamoyl)-1H-pyrazole-3-sulfonamide], for which the figures for the IC50 on NLRP3 [1] and at NLRP3 [2] were less than 640 nM and less than 800 nM, respectively.
In the same order, the values of `CN(C)CCn1ncc(S(=O)(=O)NC(=O)Nc2c3c(cc4c2CCC4)CCC3)n1` [Example 199, 2-(2-(Dimethylamino)ethyl)-N-((1,2,3,5,6,7-hexahydro-s-indacen-4-yl)carbamoyl)-2H-1,2,3-triazole-4-sulfonamide] are less than 640 nM and less than 1600 nM.
As to `CN(C)CC1(n2ccc(S(=O)(=O)NC(=O)Nc3c4c(cc5c3CCC5)CCC4)n2)CC1` [Example 202, 1-(1-((Dimethylamino)methyl)cyclopropyl)-N-((1,2,3,5,6,7-hexahydro-s-indacen-4-yl)carbamoyl)-1H-pyrazole-3-sulfonamide], the IC50 on NLRP3 [1] was less than 160 nM; on NLRP3 [2] it was less than 400 nM.
As to `CNCC(C)(C)n1ccc(S(=O)(=O)NC(=O)Nc2c3c(cc4c2CCC4)CCC3)n1` [Example 204, N-((1,2,3,5,6,7-Hexahydro-s-indacen-4-yl)carbamoyl)-1-(2-methyl-1-(methylamino)propan-2-yl)-1H-pyrazole-3-sulfonamide, sodium salt], the IC50 on NLRP3 [1] was less than 160 nM; on NLRP3 [2], less than 800 nM.
On to `CN1CCC(n2ccc(S(=O)(=O)NC(=O)Nc3c4c(cc5c3CCC5)CCC4)n2)C1` (stereo not shown) [Example 205, N-((1,2,3,5,6,7-Hexahydro-s-indacen-4-yl)carbamoyl)-1-(1-methylpyrrolidin-3-yl)-1H-pyrazole-3-sulfonamide, sodium salt], for which the IC50 on NLRP3 [1] is less than 40 nM; at NLRP3 [2] it was less than 1600 nM.
